# Assay results reported in PMC11582173, “Synthesis, cytotoxicity, anti-inflammatory, anti-metastatic and anti-oxidant activities of novel chalcones incorporating 2-phenoxy-N-arylacetamide and thiophene moieties: induction of apoptosis in MCF7 and HEP2 cells” (Naunyn-Schmiedeberg's Archives of Pharmacology, 2024).
# System: COX-2 gene
# Experiment: Real-time PCR, COX-2 gene expression
# Assay type: cell-based, human
# Settings: relative to untreated control (1)
# Experimental: The expression level of the following six genes (Ki-67, Survivin, Interleukin-1 beta (IL-1B), Interleukin-6 (IL-6), Cyclooxygenase-2 (COX-2) and protein kinase B (AKT1)) was determined in MCF7 and HEP2 treated with the IC50 of compound 5c. The untreated cells were used as a negative control for comparison purposes. […] Ki-67 is a popular proliferation marker for human tumor cells. […] Survivin is an inhibitor of apoptotic protein (IAP) family member, which is essential for cell division. The lowering of the expression of survivin inhibited tumor development, triggered apoptosis, and made tumor cells more susceptible to radiation and chemotherapy (Albadari and Li [2023]). […] IL-1B is a pleiotropic mediator of inflammation, which is produced in response to a variety of stressors (Aarreberg et al. [2019]). […] IL-6 is a pro-inflammatory cytokine that plays a significant role in the proliferation and differentiation of human cells. It promotes the production of numerous proteins involved in acute inflammation (Uciechowski and Dempke [2020]). […]
# The expression level of the following six genes (Ki-67, survivin, AKT1, IL-6, COX2, and IL-1B) was examined using real-time polymerase chain reaction (qPCR) (Mohamed et al. [2023a]). […] The cycle threshold (Ct) was determined automatically. […]
compound,measurement,setting,value
"COc1ccc(NC(=O)COc2ccc(C=CC(=O)c3cccs3)cc2)cc1 [Compound 5c, N-(4-Methoxyphenyl)-2-(4-(3-oxo-3-(thiophen-2-yl)prop-1-en-1-yl)phenoxy)acetamide]",COX2 expression folding,HEP2 cells treated with IC50 of 5c,0.547±0.0321 fold
same,COX2 expression folding,MCF7 cells treated with IC50 of 5c,0.502±0.073 fold
